Data: patent US9174964B2, “AMPK-activating piperidinyloxy-substituted 2,3-dihydro-1H-indene-1-amine compounds and pharmaceutical compositions including the same” (Rigel Pharmaceuticals, Inc., priority 2007, dated 2015)

target: AMPK; test: AMPK activation, enzyme-linked immunosorbent assay; format: biochemical; settings: Table 2, AMPK activation, ELISA
Experimental: Compounds 1-50 of Table 1 were assayed for their ability to activate AMPK using an enzyme-linked immunosorbent assay.
Compounds 51-60 of Table 1 were assayed for their ability to activate AMPK using an enzyme-linked immunosorbent assay.
Compounds 61-131 of Table 1 were assayed for their ability to activate AMPK using an enzyme-linked immunosorbent assay.
Compounds 137-141 and 143-155 of Table 1 were assayed for their ability to activate AMPK using an enzyme-linked immunosorbent assay.
Compounds 156-160 of Table 1 were assayed for their ability to activate AMPK using an enzyme-linked immunosorbent assay.

| EC50 [nM] | SMILES |
| --- | --- |
| 100 to 500 | N#Cc1ccc(CN2CCC(NC(=O)c3ccc(OC4CCN(c5ccc(C(F)(F)F)cc5)CC4)nc3)CC2)cc1 [Compound 35, N-(1-(4-cyanobenzyl)piperidin-4-yl)-6-(1-(4-(trifluoromethyl)phenyl)piperidin-4-yloxy)nicotinamide] |
| > 10000 | COC(=O)c1ccc(CN2CCC(NC(=O)c3ccc(OC4CCN(c5ccc(C(F)(F)F)cc5)CC4)nc3)CC2)cc1 [Compound 45, methyl 4-((4-(6-(1-(4-(trifluoromethyl)phenyl)piperidin-4-yloxy)nicotinamido)piperidin-1-yl)methyl)benzoate] |
| 1000 to 5000 | O=C(O)c1ccc(CN2CCC(NC(=O)c3ccc(OC4CCN(c5ccc(C(F)(F)F)cc5)CC4)nc3)CC2)cc1 [Compound 46, 4-((4-(6-(1-(4-(trifluoromethyl)phenyl)piperidin-4-yloxy)nicotinamido)piperidin-1-yl)methyl)benzoic acid] |

Continued, molecule first:

| SMILES | EC50 [nM] |
| --- | --- |
| O=C(N[C@@H]1CCN(Cc2ccc(F)cc2)C1)c1ccc(OC2CCN(c3ccc(C(F)(F)F)cc3)CC2)cn1 [Compound 34, (R)-N-(1-(4-fluorobenzyl)pyrrolidin-3-yl)-5-(1-(4-(trifluoromethyl)phenyl)piperidin-4-yloxy)picolinamide] | 500 to 1000 |
| O=C(NC1CCN(CCc2ccccc2)CC1)c1ccc(OC2CCN(c3ccc(C(F)(F)F)cc3)CC2)cn1 [Compound 36, N-(1-phenethylpiperidin-4-yl)-5-(1-(4-(trifluoromethyl)phenyl)piperidin-4-yloxy)picolinamide] | 500 to 1000 |
| O=C(NC1CCN(Cc2ccc3ccccc3c2)CC1)c1ccc(OC2CCN(c3ccc(C(F)(F)F)cc3)CC2)cn1 [Compound 37, N-(1-(naphthalen-2-ylmethyl)piperidin-4-yl)-5-(1-(4-(trifluoromethyl)phenyl)piperidin-4-yloxy)picolinamide] | 500 to 1000 |
| O=C(NC1CCN(Cc2ccccc2)CC1)c1ccc(OC2CCN(c3ccc(C(F)(F)F)cc3)CC2)cn1 [Compound 38, N-(1-benzylpiperidin-4-yl)-5-(1-(4-(trifluoromethyl)phenyl)piperidin-4-yloxy)picolinamide] | 1000 to 5000 |
| CN(C)c1ccc(CN2CCC(NC(=O)c3ccc(OC4CCN(c5ccc(C(F)(F)F)cc5)CC4)cn3)CC2)cc1 [Compound 39, N-(1-(4-(dimethylamino)benzyl)piperidin-4-yl)-5-(1-(4-(trifluoromethyl)phenyl)piperidin-4-yloxy)picolinamide] | 100 to 500 |
| O=C(NC1CCN(Cc2ccc(N3CCOCC3)cc2)CC1)c1ccc(OC2CCN(c3ccc(C(F)(F)F)cc3)CC2)cn1 [Compound 40, N-(1-(4-morpholinobenzyl)piperidin-4-yl)-5-(1-(4-(trifluoromethyl)phenyl)piperidin-4-yloxy)picolinamide] | < 100 |
| N#Cc1ccc(CN2CC(NC(=O)c3ccc(OC4CCN(c5ccc(C(F)(F)F)cc5)CC4)cn3)C2)cc1 [Compound 41, N-(1-(4-cyanobenzyl)azetidin-3-yl)-5-(1-(4-(trifluoromethyl)phenyl)piperidin-4-yloxy)picolinamide] | 100 to 500 |
| O=C(NC1CN(Cc2ccncc2)C1)c1ccc(OC2CCN(c3ccc(C(F)(F)F)cc3)CC2)cn1 [Compound 42, N-(1-(pyridin-4-ylmethyl)azetidin-3-yl)-5-(1-(4-(trifluoromethyl)phenyl)piperidin-4-yloxy)picolinamide] | 1000 to 5000 |
| O=C(NC1CCN(Cc2ccncc2)CC1)c1cccc(OC2CCN(c3ccc(C(F)(F)F)cc3)CC2)n1 [Compound 43, N-(1-(pyridin-4-ylmethyl)piperidin-4-yl)-6-(1-(4-(trifluoromethyl)phenyl)piperidin-4-yloxy)picolinamide] | 1000 to 5000 |
| O=C(NC1CCN(Cc2c[nH]cn2)CC1)c1ccc(OC2CCN(c3ccc(C(F)(F)F)cc3)CC2)cn1 [Compound 48, N-(1-((1H-imidazol-4-yl)methyl)piperidin-4-yl)-5-(1-(4-(trifluoromethyl)phenyl)piperidin-4-yloxy)picolinamide] | 1000 to 5000 |
| CC(C)(C)OC(=O)NCCCNC(=O)c1ccc(OC2CCN(c3ccc(C(F)(F)F)cc3)CC2)cn1 [Compound 49, tert-butyl 3-(5-(1-(4-(trifluoromethyl)phenyl)piperidin-4-yloxy)picolinamido) propylcarbamate] | < 100 |
| O=C(NCCCNCc1ccncc1)c1ccc(OC2CCN(c3ccc(C(F)(F)F)cc3)CC2)cn1 [Compound 50, N-(3-(pyridin-4-ylmethylamino)propyl)-5-(1-(4-(trifluoromethyl)phenyl)piperidin-4-yloxy)picolinamide] | 1000 to 5000 |

same assay, conditions: Table 3, AMPK activation, ELISA

| EC50 [nM] | SMILES |
| --- | --- |
| 100 to 500 | O=S(=O)(NC1CCN(Cc2ccncc2)CC1)c1ccc(OC2CCN(c3ccc(C(F)(F)F)cc3)CC2)nc1 [Compound 51, N-(1-(pyridin-4-ylmethyl)piperidin-4-yl)-6-(1-(4-(trifluoromethyl)phenyl)piperidin-4-yloxy)pyridine-3-sulfonamide] |
| 100 to 500 | N#Cc1ccc(N2CCC(Oc3ccc(S(=O)(=O)NC4CCN(Cc5ccncc5)CC4)cn3)CC2)cc1 [Compound 52, N-(1-(pyridin-4-ylmethyl)piperidin-4-yl)-6-(1-(4-cyanophenyl)piperidin-4-yloxy)pyridine-3-sulfonamide] |
| 5000 to 50000 | N#Cc1ccc(CN2CCC(NS(=O)(=O)c3ccc(OC4CCN(c5ccc(C(F)(F)F)cc5)CC4)nc3)CC2)cc1 [Compound 56, N-(1-(4-cyanobenzyl)piperidin-4-yl)-6-(1-(4-(trifluoromethyl)phenyl)piperidin-4-yloxy)pyridine-3-sulfonamide] |
| 500 to 1000 | N#Cc1cccc(CN2CCC(NS(=O)(=O)c3ccc(OC4CCN(c5ccc(C(F)(F)F)cc5)CC4)nc3)CC2)c1 [Compound 57, N-(1-(3-cyanobenzyl)piperidin-4-yl)-6-(1-(4-(trifluoromethyl)phenyl)piperidin-4-yloxy)pyridine-3-sulfonamide] |
| < 100 | O=S(=O)(NC1CCN(Cc2ccc(C(F)(F)F)cc2)CC1)c1ccc(OC2CCN(c3ccc(C(F)(F)F)cc3)CC2)nc1 [Compound 58, N-(1-(4-(trifluoromethyl)benzyl)piperidin-4-yl)-6-(1-(4-(trifluoromethyl)phenyl)piperidin-4-yloxy)pyridine-3-sulfonamide] |
| 100 to 500 | O=S(=O)(NC1CCN(Cc2cccc(C(F)(F)F)c2)CC1)c1ccc(OC2CCN(c3ccc(C(F)(F)F)cc3)CC2)nc1 [Compound 59, N-(1-(3-(trifluoromethyl)benzyl)piperidin-4-yl)-6-(1-(4-(trifluoromethyl)phenyl)piperidin-4-yloxy)pyridine-3-sulfonamide] |
| > 50000 | O=C(c1ccc(F)cc1)N1CCC(NS(=O)(=O)c2ccc(OC3CCN(c4ccc(C(F)(F)F)cc4)CC3)nc2)CC1 [Compound 60, N-(1-(4-fluorobenzoyl)piperidin-4-yl)-6-(1-(4-(trifluoromethyl)phenyl)piperidin-4-yloxy)pyridine-3-sulfonamide] |

Continued, molecule first:

| SMILES | EC50 [nM] |
| --- | --- |
| N#Cc1ccc(CN2CCC(Oc3ccc(S(=O)(=O)NC4CCN(Cc5ccncc5)CC4)cn3)CC2)cc1 [Compound 53, 6-(1-(4-cyanobenzyl)piperidin-4-yloxy)-N-(1-(pyridin-4-ylmethyl)piperidin-4-yl)pyridine-3-sulfonamide] | 100 to 500 |
| CC(C)(C)OC(=O)N1CCC(NS(=O)(=O)c2ccc(OC3CCN(c4ccc(C(F)(F)F)cc4)CC3)nc2)CC1 [Compound 54, tert-butyl 4-(6-(1-(4-(trifluoromethyl)phenyl)piperidin-4-yloxy)pyridine-3-sulfonamido)piperidine-1-carboxylate] | 1000 to 5000 |
| O=S(=O)(NC1CCNCC1)c1ccc(OC2CCN(c3ccc(C(F)(F)F)cc3)CC2)nc1 [Compound 55, N-(piperidin-4-yl)-6-(1-(4-(trifluoromethyl)phenyl)piperidin-4-yloxy)pyridine-3-sulfonamide] | 1000 to 5000 |

same assay, conditions: Table 4, AMPK activation, ELISA

| EC50 [nM] | SMILES |
| --- | --- |
| 100 to 500 | Cc1c(C(=O)NC2CCN(C(=O)OC(C)(C)C)CC2)oc2cc(OC3CCN(c4ccc(C(F)(F)F)cc4)CC3)ccc12 [Compound 61, tert-butyl 4-(3-methyl-6-(1-(4-(trifluoromethyl)phenyl)piperidin-4-yloxy)benzofuran-2-carboxamido)piperidine-1-carboxylate] |
| 10000 to 50000 | Cc1c(C(=O)NC2CCNCC2)oc2cc(OC3CCN(c4ccc(C(F)(F)F)cc4)CC3)ccc12 [Compound 62, 3-methyl-N-(piperidin-4-yl)-6-(1-(4-(trifluoromethyl)phenyl)piperidin-4-yloxy)benzofuran-2-carboxamide] |
| < 100 | Cc1c(C(=O)NC2CCN(Cc3ccc(F)cc3)CC2)oc2cc(OC3CCN(c4ccc(C(F)(F)F)cc4)CC3)ccc12 [Compound 63, N-(1-(4-fluorobenzyl)piperidin-4-yl)-3-methyl-6-(1-(4-(trifluoromethyl)phenyl)piperidin-4-yloxy)benzofuran-2-carboxamide] |
| < 100 | Cc1c(C(=O)NC2CCN(Cc3ccc(C#N)cc3)CC2)oc2cc(OC3CCN(c4ccc(C(F)(F)F)cc4)CC3)ccc12 [Compound 64, N-(1-(4-cyanobenzyl)piperidin-4-yl)-3-methyl-6-(1-(4-(trifluoromethyl)phenyl)piperidin-4-yloxy)benzofuran-2-carboxamide] |
| < 100 | Cc1c(C(=O)NC2CCN(Cc3ccncc3)CC2)oc2cc(OC3CCN(c4ccc(C(F)(F)F)cc4)CC3)ccc12 [Compound 65, 3-methyl-N-(1-(pyridin-4-ylmethyl)piperidin-4-yl)-6-(1-(4-(trifluoromethyl)phenyl)piperidin-4-yloxy)benzofuran-2-carboxamide] |
| < 100 | Cc1c(C(=O)NC2CCN(Cc3cccc(C#N)c3)CC2)oc2cc(OC3CCN(c4ccc(C(F)(F)F)cc4)CC3)ccc12 [Compound 66, N-(1-(3-cyanobenzyl)piperidin-4-yl)-3-methyl-6-(1-(4-(trifluoromethyl)phenyl)piperidin-4-yloxy)benzofuran-2-carboxamide] |
